What was measured:
[1] = molecular target: T1, human β3-adrenergic receptor (Homo sapiens, UniProt P13945); test: cAMP levels in CHO-K1 cells expressing the human β3-adrenergic receptor; assay type: cell-based; details: CHO-K1, 0.25 h, 15 min, read-out: Activity (intracellular cAMP compared to that of isoproterenol)
T1 construct: expressed in transfected cells
Description: CHO-K1 cells stably expressing the human β3-adrenergic receptors were serum-starved overnight and stimulated with an agonist, final concentration 1×10^−5 M, for 15 min in stimulation buffer (HBSS supplemented with 1% BSA, 5 mM HEPES and 1 mM IBMX, pH 7.4) The medium was then aspirated and to end the reaction, 100 μL of 95% EtOH was added to each well of the 24-well plate and cells were kept at −20° C. overnight. The next day EtOH was allowed to evaporate and 250 μL of lysis buffer (1% BSA, 5 mM HEPES and 0.3% Tween-20, pH 7.4) was added to each well. The plate was kept at −80° C. for 30 min and thawed in room temperature. Intracellular cAMP levels were detected using an alpha screen cAMP kit (6760635D from Perkin Elmer). The activity for each compound is compared to that of isoproterenol.

[2] = molecular target: T2, β2-adrenergic receptor (Rattus norvegicus, UniProt P10608); test: Glucose uptake in L6-myotubes in the presence of the selective β2-adrenergic receptor antagonist ICI-118551; assay type: cell-based; details: 3H-2-deoxyglucose, increasing ICI-118551
T2 construct: endogenous in cells; host or cells: L6 myotubes differentiated from L6 myoblasts
Description: L6-myoblasts were grown in Dulbecco's Modified Eagle's Medium (DMEM) containing 1 g/L glucose supplemented with 10% fetal bovine serum (FBS), 2 mM L-glutamine, 50 U/mL penicillin, […] streptomycin and 10 mM HEPES. Cells were plated at 1×10^5 cells per mL in 24-well plates. After reaching 90% confluence the cells were grown in medium containing 2% FBS for 7 days where upon cells differentiated into myotubes.
The differentiated L6-myotubes were serum-starved overnight in medium containing 0.5% fatty-acid free BSA and stimulated with Compounds A and B at a final concentration of 1×10^−5 M in the presence of the selective β2-adrenergic receptor antagonist ICI-118551. After 1 h 40 min the cells were washed with warm, glucose free medium twice and another portion of agonist was added to the glucose free medium. After another 20 min of incubation the cells were exposed to 50 nM ^3H-2-deoxyglucose for 10 min before washed in ice cold glucose free medium three times and lysed in 400 μl/well 0.2 M NaOH for 1 h at 60° C. The cell lysate was mixed with 4 ml scintillation buffer (Emulsifier Safe, Perkin Elmer) and the radioactivity was detected in a […] (Tri-Carb 4810TR, Perkin Elmer).

T1 sequence (P13945 whole entry): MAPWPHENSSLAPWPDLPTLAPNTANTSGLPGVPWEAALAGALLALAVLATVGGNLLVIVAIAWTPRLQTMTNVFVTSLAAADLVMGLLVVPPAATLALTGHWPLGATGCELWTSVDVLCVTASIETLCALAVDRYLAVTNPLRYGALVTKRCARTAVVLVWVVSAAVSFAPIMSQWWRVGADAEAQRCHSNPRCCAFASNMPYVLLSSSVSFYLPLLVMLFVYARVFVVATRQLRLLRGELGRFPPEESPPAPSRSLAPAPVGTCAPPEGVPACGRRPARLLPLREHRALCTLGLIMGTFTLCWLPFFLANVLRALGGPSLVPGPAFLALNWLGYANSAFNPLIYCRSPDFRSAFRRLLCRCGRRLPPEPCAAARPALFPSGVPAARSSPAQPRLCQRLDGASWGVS
T2 sequence (P10608 whole entry): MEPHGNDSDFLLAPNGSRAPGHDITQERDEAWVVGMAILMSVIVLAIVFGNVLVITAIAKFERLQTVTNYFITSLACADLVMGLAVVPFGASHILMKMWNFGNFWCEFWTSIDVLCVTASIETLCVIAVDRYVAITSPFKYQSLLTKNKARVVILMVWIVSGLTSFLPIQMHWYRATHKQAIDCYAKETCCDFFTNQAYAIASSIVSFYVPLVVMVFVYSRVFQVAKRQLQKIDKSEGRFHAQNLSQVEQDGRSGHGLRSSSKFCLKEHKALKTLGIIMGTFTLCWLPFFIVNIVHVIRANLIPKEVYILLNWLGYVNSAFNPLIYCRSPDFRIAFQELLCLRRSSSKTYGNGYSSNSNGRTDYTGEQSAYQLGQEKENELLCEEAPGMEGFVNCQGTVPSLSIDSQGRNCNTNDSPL

Row | Compound | Emax at 10 µM [1] [%] | glucose uptake promoted by the agonist in the presence of ICI-118551 [2]
1 | CC(C)(C[C@H]1CC[C@H](O)CC1)NC[C@H](O)c1cccc(F)c1 [Compound 52, (trans)-4-(2-(((R)-2-(3-fluorophenyl)-2-hydroxy-ethyl)amino)-2-methyl-propyl)cyclohexan-1-ol] | > 75 | –
2 | CO[C@H]1CC[C@@H](CC(C)(C)NC[C@H](O)c2cccc(F)c2)CC1 [Compound 53, (R)-1-(3-fluorophenyl)-2-((1-((cis)-4-methoxycyclohexyl)-2-methylpropan-2-yl)-amino)ethan-1-ol] | 50 to 75 | –
3 | CO[C@H]1CC[C@H](C(C)(C)NC[C@H](O)c2cccc(F)c2)CC1 [Compound 54, (R)-1-(3-fluorophenyl)-2-((2-((trans)-4-methoxycyclo-hexyl)propan-2-yl)amino)-ethan-1-ol] | 50 to 75 | –
4 | CC12CC(C1)[C@H]([C@H](O)c1cccc(F)c1)N2 [Compound 55, (R)-(3-fluorophenyl)((R)-1-methyl-2-azabicyclo[2.1.1]-hexan-3-yl)methanol] | 50 to 75 | –
5 | O[C@H](c1cccc(F)c1)[C@H]1CCC2(CCCC2)N1 [Compound 56, (R)-(3-fluorophenyl)((R)-1-azaspiro[4.4]nonan-2-yl)-methanol] | > 75 | –
6 | CC(C)(C)[C@H]1CC[C@H]([C@H](O)c2cccc(F)c2)N1 [Compound 57, (R)-((2R,5R)-5-(tert-butyl)-pyrrolidin-2-yl)(3-fluoro-phenyl)methanol] | 50 to 75 | –
7 | CC1(C)CC[C@H]([C@H](O)c2cccc(Cl)c2)N1 [Compound 58, (R)-(3-chlorophenyl)((R)-5,5-dimethylpyrrolidin-2-yl)-methanol] | 50 to 75 | –
8 | CC(C)(C)NC[C@H](O)c1ccc(F)c(N)c1F [Compound 59, (R)-1-(3-amino-2,4-difluoro-phenyl)-2-(tert-butylamino)-ethan-1-ol] | > 75 | –
9 | CC(C)(C)NCC(O)c1ccncc1O (stereo not drawn) [Compound 60, 4-(2-(tert-butylamino)-1-hydroxyethyl)pyridin-3-ol] | > 75 | –
10 | CC(C)(C)NC[C@H](O)c1cccc(N)c1F [Compound 61, (R)-1-(3-amino-2-fluoro-phenyl)-2-(tert-butylamino)-ethan-1-o] | > 75 | –
11 | CC1(NC[C@H](O)c2cccc(O)c2)CCC1 [Compound 62, (R)-3-(1-hydroxy-2-((1-methylcyclobutyl)amino)-ethyl)phenol] | > 75 | –
12 | CC1(NC[C@H](O)c2cccc(F)c2)CC1 [Compound 63, (R)-1-(3-fluorophenyl)-2-((1-methylcyclopropyl)amino)-ethan-1-ol] | 50 to 75 | –
13 | CCCCNC[C@H](O)c1ccccc1F [Compound 64, (R)-2-(butylamino)-1-(2-fluorophenyl)ethan-1-ol] | > 75 | –
14 | CC(C)(C)NC[C@H](O)c1cccc(F)c1F [Compound 65, (R)-2-(tert-butylamino)-1-(2,3-difluorophenyl)ethan-1-ol] | > 75 | –
15 | CCC[C@@H](C)NC[C@H](O)c1cccc(F)c1 [Compound 66, (R)-1-(3-fluorophenyl)-2-(((R)-pentan-2-yl)amino)-ethan-1-ol] | > 75 | –
16 | CCCCNCC(O)c1ccc(F)c(N)c1F (stereo not drawn) [Compound 67, 1-(3-amino-2,4-difluoro-phenyl)-2-(butylamino)ethan-1-ol] | 50 to 75 | –
17 | CCC[C@H](C)NC[C@H](O)c1cccc(O)c1 [Compound 68, 3-((R)-1-hydroxy-2-(((S)-pentan-2-yl)amino)ethyl)-phenol] | > 75 | –
18 | CCC[C@@H](C)NC[C@H](O)c1cccc(O)c1 [Compound 69, 3-((R)-1-hydroxy-2-(((R)-pentan-2-yl)amino)ethyl)-phenol] | > 75 | –
19 | CCCCNC[C@H](O)c1ccc(O)cc1 [Compound 70, (R)-4-(2-(butylamino)-1-hydroxyethyl)phenol] | 50 to 75 | –
20 | CC(C)(C)NC[C@H](O)c1cccc(F)c1 [Compound A] | – | inhibited in a dose-dependent manner
21 | CC(C)(C)NCC(O)c1cc(Cl)c(N)c(Cl)c1 (stereo not drawn) [clenbuterol, reference compound] | – | inhibited in a dose-dependent manner
